“Also recorded” adds a separate entry of the source. Read-outs that look alike come from different tables or passages of the source.
Experiments:
[1] = molecular target: T1, Human MOR (Homo sapiens, UniProt P35372); assay: cell-based
T1 construct: expressed in transfected cells; host or cells: HEK-293T

[2] = molecular target: T2, Human DOR (Homo sapiens, UniProt P41143); assay: cell-based
T2 construct: expressed in transfected cells; host or cells: HEK-293T

[3] = molecular target: T3, Human KOR (Homo sapiens, UniProt P41145); assay: cell-based; conditions: for Emax: read-out: Emax in parentheses, Human KOR
T3 construct: expressed in transfected cells; host or cells: HEK-293T
T3 sequence (P41145 whole entry): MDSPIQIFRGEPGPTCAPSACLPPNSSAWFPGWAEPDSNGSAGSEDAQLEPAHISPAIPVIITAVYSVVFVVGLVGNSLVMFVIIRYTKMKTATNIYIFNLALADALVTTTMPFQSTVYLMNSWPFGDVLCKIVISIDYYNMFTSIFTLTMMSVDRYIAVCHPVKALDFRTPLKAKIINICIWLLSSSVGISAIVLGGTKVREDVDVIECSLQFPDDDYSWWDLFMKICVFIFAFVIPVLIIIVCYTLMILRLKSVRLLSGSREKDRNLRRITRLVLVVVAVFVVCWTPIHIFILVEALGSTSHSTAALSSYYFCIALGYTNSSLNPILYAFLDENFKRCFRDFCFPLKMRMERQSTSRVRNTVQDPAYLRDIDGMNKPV

[4] = molecular target: T3, Human KOR; assay: BRET functional assay, inhibition of reference agonist U-50,488 (antagonist mode), human KOR; type: cell-based
[5] = EC50, induced BRET signal, Human MOR
[6] = EC50, induced BRET signal, Human DOR
[7] = EC50, induced BRET signal, Human KOR
[8] = EC50 at indicated opioid receptor, Human MOR
[9] = EC50 at indicated opioid receptor, Human DOR
[10] = EC50 at indicated opioid receptor, Human KOR
[11] = read-out: EC50 at indicated opioid receptor, Human DOR

T2 sequence (P41143 whole entry): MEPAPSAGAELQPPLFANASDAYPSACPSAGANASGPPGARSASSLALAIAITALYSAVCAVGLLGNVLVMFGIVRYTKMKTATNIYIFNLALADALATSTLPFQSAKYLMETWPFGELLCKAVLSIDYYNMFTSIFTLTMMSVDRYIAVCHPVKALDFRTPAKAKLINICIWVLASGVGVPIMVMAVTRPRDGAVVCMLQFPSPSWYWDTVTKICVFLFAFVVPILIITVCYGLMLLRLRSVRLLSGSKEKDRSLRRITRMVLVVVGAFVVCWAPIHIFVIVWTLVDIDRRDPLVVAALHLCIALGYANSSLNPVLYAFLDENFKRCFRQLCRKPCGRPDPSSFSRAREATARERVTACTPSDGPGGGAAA
T1 sequence (P35372 whole entry): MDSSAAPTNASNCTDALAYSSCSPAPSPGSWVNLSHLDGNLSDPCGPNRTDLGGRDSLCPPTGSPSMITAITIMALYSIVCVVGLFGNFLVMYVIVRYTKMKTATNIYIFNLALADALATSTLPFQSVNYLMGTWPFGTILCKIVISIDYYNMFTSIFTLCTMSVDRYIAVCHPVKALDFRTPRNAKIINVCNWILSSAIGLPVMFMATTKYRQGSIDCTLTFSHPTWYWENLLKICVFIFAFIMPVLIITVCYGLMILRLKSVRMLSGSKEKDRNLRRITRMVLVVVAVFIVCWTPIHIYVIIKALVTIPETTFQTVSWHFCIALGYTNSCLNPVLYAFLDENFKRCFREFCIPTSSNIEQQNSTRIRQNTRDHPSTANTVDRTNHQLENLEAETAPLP

Row | SMILES | EC50 [1, 8] [µM] | EC50 [2, 9] [µM] | EC50 [3, 10] [µM] | further results
1 | CCCC1CC2CC3c4oc5ccc(O)cc5c4CCN(C2)C13 (stereo not drawn) [Compound 35d] | – | – | – | agonist activity at MOR (in words) [1]: agonist activity; EC50 [1, 5]: 0.922 ± 0.282 µM; agonist activity at DOR (in words) [2]: agonist activity; EC50 [2, 6]: 5.7 ± 5.1 µM; agonist activity at KOR (in words) [3]: agonist activity; EC50 [3, 7]: 0.297 ± 0.03 µM
2 | CCC1CC2CC3c4oc5cc(F)c(O)cc5c4CCN(C2)C13 (stereo not drawn) [Compound 35k] | < 10 | < 10 | < 10 | –
3 | CCC1CC2CC3c4oc5ccc(OC)cc5c4CCN(C2)C13 (single isomer, unassigned) [Compound 34d] | > 100 | > 100 | > 10 | –
4 | CCCC1CC2CC3c4oc5ccc(O)cc5c4CCN(C2)C13 (stereo not drawn) [Compound 35c] | < 10 | < 10 | < 10 | –
5 | Oc1ccc2oc3c(c2c1)CCN1CC2CC(c4ccccc4)C1C3C2 (stereo not drawn) [Compound 35m] | < 10 | < 10 | > 100 | –
6 | CCC1CC2CC3c4oc5cc(OC)ccc5c4CCN(C2)C13 (stereo not drawn) [Compound 34k] | < 10 | > 10 | < 10 | –
7 | CCCCC1CC2CC3c4oc5ccc(OC)cc5c4CCN(C2)C13 (stereo not drawn) [Compound 34i] | > 10 | > 100 | > 10 | –
8 | CCC1CC2CC3c4oc5ccc(F)cc5c4CCN(C2)C13 (stereo not drawn) [Compound 34j] | > 10 | > 100 | > 10 | –
9 | CCC1CC2CC3c4oc5cccc(O)c5c4CCN(C2)C13 (stereo not drawn) [Compound 52b] | > 10 | > 100 | > 100 | –
10 | OCC1CC2CC3c4oc5ccc(O)cc5c4CCN(C2)C13 (stereo not drawn) [Compound 60g] | – | – | – | EC50 ([1]; EC50, Human MOR): > 10 µM; EC50 ([2]; EC50, Human DOR): > 10 µM; EC50 ([3]; EC50, Human KOR): < 10 µM
11 | COc1ccc2oc3c(c2c1)CCN1CC2CC(c4ccccc4)C1C3C2 (stereo not drawn) [Compound 34n] | > 100 | > 100 | > 10 | –
12 | CCC1CC2CC3c4oc5cc(F)c(OC)cc5c4CCN(C2)C13 (stereo not drawn) [Compound 34l] | > 100 | > 100 | > 10 | –
13 | CCCC1CC2CC3c4oc5ccc(OC)cc5c4CCN(C2)C13 (stereo not drawn) [Compound 34f] | > 100 | – | > 10 | EC50 [2, 11]: > 100 µM
14 | CCC1(CC)CC2CC3c4oc5ccc(O)cc5c4C[C@@H](C)N(C2)C31 (stereo partly drawn) [α-endo-52f] | > 100 | > 100 | – | agonist activity at MOR (in words) [1]: not active as agonist; agonist activity at DOR (in words) [2]: not active as agonist; agonist activity at KOR (in words) [3]: selective KOR agonist; EC50 [3, 7]: 0.12 ± 0.014 µM; Emax [3]: 47%
15 | CCC1CC2CC3c4sc5ccccc5c4CCN(C2)C13 (stereo not drawn) [Compound 34q, 7-ethyl-6,6a,7,8,9,10,12,13-octahydro-6,9-methanobenzo[4,5] thieno[2,3-d]pyrido[1,2-a]azepine] | > 100 | > 100 | > 10 | –
16 | CCC1CC2CC3c4sc5ccc(O)cc5c4CCN(C2)C13 (stereo not drawn) [Compound 35n] | < 10 | > 100 | < 10 | –
17 | CCC1CC2CC3c4oc5ccc(O)cc5c4C[C@@H](C)N(C2)C13 (stereo partly drawn) [α-endo-52e] | – | > 100 | – | Emax ([1]; read-out: Emax in parentheses, Human MOR): 24%; Emax [3]: 26%
18 | CCC1CC2CC3c4sc5ccc(OC)cc5c4CCN(C2)C13 (stereo not drawn) [Compound 34r] | > 10 | > 100 | > 10 | –
19 | CCC1CC2CC3c4oc5ccc(O)cc5c4CCN(C2)C13 (stereo not drawn) [Compound 35a] | < 10 | < 10 | < 10 | agonist activity at MOR (in words) [1]: full agonist; EC50 [1, 5]: 0.98 ± 0.14 µM; agonist activity at DOR (in words) [2]: full agonist; EC50 [2, 6]: 4.5 ± 1.2 µM; agonist activity at KOR (in words) [3]: full agonist; EC50 [3, 7]: 0.66 ± 0.13 µM
20 | CCC1CC2(C)CC3c4oc5ccc(O)cc5c4CCN(C2)C13 (single isomer, unassigned) [Compound 60c] | – | – | – | EC50 ([1]; EC50, Human MOR): < 10 µM; EC50 ([2]; EC50, Human DOR): > 10 µM; EC50 ([3]; EC50, Human KOR): < 10 µM
21 | COCC1CC2CC3c4oc5ccc(O)cc5c4CCN(C2)C13 (stereo not drawn) [Compound 35i] | < 10 | < 10 | < 10 | –
22 | CC[C@H]1Cc2c(oc3ccc(O)cc23)C2CC3CCC2N1C3 (stereo partly drawn) [α-exo-60f] | – | – | – | EC50 ([1]; EC50, Human MOR): < 10 µM; EC50 ([2]; EC50, Human DOR): < 10 µM; EC50 ([3]; EC50, Human KOR): < 10 µM
23 | CC[C@@H]1Cc2c(oc3ccc(O)cc23)C2CC3CCC2N1C3 (stereo partly drawn) [α-endo-60f] | – | – | – | EC50 ([1]; EC50, Human MOR): > 100 µM; EC50 ([2]; EC50, Human DOR): > 100 µM; EC50 ([3]; EC50, Human KOR): > 10 µM

Row | SMILES | EC50 [1, 8] [µM] | EC50 [2, 9] [µM] | EC50 [3, 10] [µM] | further results
24 | CCC1CC2CC3c4oc5cc(C)c(OC)cc5c4CCN(C2)C13 (stereo not drawn) [Compound 51c] | – | – | – | EC50 ([1]; EC50, Human MOR): > 10 µM; EC50 ([2]; EC50, Human DOR): > 10 µM; EC50 ([3]; EC50, Human KOR): > 10 µM
25 | CCC1CC2CC3c4oc5cccc(OC)c5c4CCN(C2)C13 (stereo not drawn) [Compound 51b] | – | – | – | EC50 ([1]; EC50, Human MOR): > 10 µM; EC50 ([2]; EC50, Human DOR): > 100 µM; EC50 ([3]; EC50, Human KOR): > 10 µM
26 | COCC1CC2CC3c4oc5ccc(OC)cc5c4CCN(C2)C13 (stereo not drawn) [Compound 59g] | – | – | – | EC50 ([1]; EC50, Human MOR): > 100 µM; EC50 ([2]; EC50, Human DOR): > 100 µM; EC50 ([3]; EC50, Human KOR): < 10 µM
27 | CCC1CC2(C)CC3c4oc5ccc(O)cc5c4CCN(C2)C13 (single isomer, unassigned) [Compound 60b] | – | – | – | EC50 ([1]; read-out: EC50, Human MOR): < 10 µM; EC50 ([2]; EC50, Human DOR): < 10 µM; EC50 ([3]; read-out: EC50, Human KOR): < 10 µM
28 | CCC1CC2CC3c4oc5ccc(OC)cc5c4CCN(C2)C13 (single isomer, unassigned) [Compound 34c] | > 10 | – | – | EC50 [2, 11]: > 100 µM; EC50 ([3]; read-out: EC50 at indicated opioid receptor, Human KOR): > 10 µM
29 | CCC1CC2CC3c4oc5ccc(O)cc5c4C[C@H](C)N(C2)C13 (single isomer, unassigned) [α-exo-52f] | – | > 100 | – | EC50 (μM) with Emax in parentheses, Human MOR [1]: 0.48 μM ± 0.20 (50%); EC50 with Emax in parentheses [3]: 0.14 μM ± 0.006 (72%)
30 | CCCC1CC2CC3c4oc5ccc(OC)cc5c4CCN(C2)C13 (stereo not drawn) [Compound 34e] | > 10 | > 100 | > 100 | –
31 | CCCCC1CC2CC3c4oc5ccc(O)cc5c4CCN(C2)C13 (stereo not drawn) [Compound 35h] | < 10 | < 10 | < 10 | –
32 | CCC1CC2CC3c4oc5ccccc5c4CCN(C2)C13 (stereo not drawn) [Compound 34a, 7-ethyl-6,6a,7,8,9,10,12,13-octahydro-6,9-methanobenzofuro[2,3-d] pyrido[1,2-a]azepine] | > 100 | > 100 | > 10 | –
33 | CCC1CC2CC3c4oc5ccc(O)cc5c4C[C@H](C)N(C2)C13 (single isomer, unassigned) [α-exo-52e] | – | – | – | EC50 (μM) with Emax in parentheses, Human MOR [1]: 0.40 μM ± 0.056 (98%); Emax ([2]; read-out: Emax in parentheses, Human DOR): 98%; Emax [3]: 88%
34 | Oc1ccc2oc3c(c2c1)CCN1CC2CC(Cc4ccccc4)C1C3C2 (stereo not drawn) [Compound 60h] | – | – | – | EC50 ([1]; EC50, Human MOR): > 10 µM; EC50 ([2]; EC50, Human DOR): > 10 µM; EC50 ([3]; EC50, Human KOR): > 10 µM
35 | CCC1CC2CC3c4oc5ccc(O)cc5c4C[C@@H](CC)N(C2)C13 (stereo partly drawn) [α-endo-52g] | > 100 | > 100 | > 100 | agonist activity at MOR (in words) [1]: not active as agonist; agonist activity at DOR (in words) [2]: not active as agonist; agonist activity at KOR (in words) [3]: not active as agonist; also recorded: no agonist activity; IC50 [4]: 8.2 ± 0.5 µM; antagonist activity at KOR (in words) [4]: KOR antagonist
36 | CC1C2CCC3C(C2)c2oc4ccc(O)cc4c2CCN13 (stereo not drawn) [Compound 60d] | – | – | – | EC50 ([1]; EC50, Human MOR): < 10 µM; EC50 ([2]; EC50, Human DOR): > 100 µM; EC50 ([3]; EC50, Human KOR): < 10 µM
37 | Oc1ccc2oc3c(c2c1)CCN1CC2CC(c4ccccc4)C1C3C2 (stereo not drawn) [Compound 35l] | > 10 | > 10 | > 10 | –
38 | COc1ccc2oc3c(c2c1)CCN1CC2CCC1C3C2 (stereo not drawn) [Compound 34h] | > 100 | > 100 | > 10 | –
39 | Oc1ccc2oc3c(c2c1)CCN1CC2CC(Cc4ccccc4)C1C3C2 (stereo not drawn) [Compound 35g] | < 10 | < 10 | < 10 | –
40 | CCC1CC2CC3c4oc5c(O)cccc5c4CCN(C2)C13 (stereo not drawn) [Compound 52a] | > 100 | > 100 | > 10 | –
41 | CCC1CC2CC3c4oc5cc(O)ccc5c4CCN(C2)C13 (stereo not drawn) [Compound 35f] | < 10 | > 10 | < 10 | –
42 | CCC1CC2CC3c4oc5cc(C)c(O)cc5c4CCN(C2)C13 (stereo not drawn) [Compound 52c] | > 10 | > 10 | > 10 | –
43 | OCC1CC2CC3c4oc5ccc(O)cc5c4CCN(C2)C13 (stereo not drawn) [Compound 35j] | < 10 | < 10 | < 10 | –
44 | Oc1ccc2oc3c(c2c1)CCN1CC2CCC1C3C2 (stereo not drawn) [Compound 35e] | < 10 | > 100 | < 10 | –
45 | COCC1CC2CC3c4oc5ccc(OC)cc5c4CCN(C2)C13 (stereo not drawn) [Compound 34m] | > 10 | > 10 | > 10 | –

Source: US11840541B2 (priority 2014, dated 2023)
